Experimental data from patent EP0726263A2, “Herbicidal (1,3,4)oxadiazoles and thiadiazoles” (American Cyanamid Company, priority 1995, dated 1996).

Legend:
Type in all cases: in vivo
Triticum aestivum [1] = experiment: Herbicidal activity, preemergence test; conditions: pre; sprayed onto soil, 800 g of active material per hectare; evaluated 3 weeks after treatment
Procedure, shortened: (§1)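 Spray dose 800 g a.i./ha in 900 L/ha; acetone stock with 0.4% Triton X-155, water-diluted. Pre: sown loam soil, read at 3 wk. Post: seedling plants, read at 2 wk. Visual 0-9 rating vs untreated.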

Abutilon theophrasti [2] = experiment: Herbicidal activity, preemergence test; conditions: pre; sprayed onto soil, 800 g of active material per hectare; evaluated 3 weeks after treatment
Procedure, shortened: as §1

Galium aparine [3] = experiment: Herbicidal activity, preemergence test; conditions: pre; sprayed onto soil, 800 g of active material per hectare; evaluated 3 weeks after treatment
Procedure, shortened: as §1

Amaranthus retroflexus [4] = experiment: Herbicidal activity, preemergence test; conditions: pre; sprayed onto soil, 800 g of active material per hectare; evaluated 3 weeks after treatment
Procedure, shortened: as §1

Gossypium hirsutum [5] = experiment: Herbicidal activity, preemergence test; conditions: pre; sprayed onto soil, 800 g of active material per hectare; evaluated 3 weeks after treatment
Procedure, shortened: as §1

Helianthus annuus [6] = experiment: Herbicidal activity, preemergence test; conditions: pre; sprayed onto soil, 800 g of active material per hectare; evaluated 3 weeks after treatment
Procedure, shortened: as §1

Hordeum vulgare [7] = experiment: Herbicidal activity, preemergence test; conditions: pre; sprayed onto soil, 800 g of active material per hectare; evaluated 3 weeks after treatment
Procedure, shortened: as §1

Echinochloa crus-galli [8] = experiment: Herbicidal activity, preemergence test; conditions: pre; sprayed onto soil, 800 g of active material per hectare; evaluated 3 weeks after treatment
Procedure, shortened: as §1

Glycine max [9] = experiment: Herbicidal activity, preemergence test; conditions: pre; sprayed onto soil, 800 g of active material per hectare; evaluated 3 weeks after treatment
Procedure, shortened: as §1

Ambrosia artemisifolia [10] = experiment: Herbicidal activity, preemergence test; conditions: pre; sprayed onto soil, 800 g of active material per hectare; evaluated 3 weeks after treatment
Procedure, shortened: as §1

Veronica persica [11] = experiment: Herbicidal activity, preemergence test; conditions: pre; sprayed onto soil, 800 g of active material per hectare; evaluated 3 weeks after treatment
Procedure, shortened: as §1

Zea mays [12] = experiment: Herbicidal activity, preemergence test; conditions: pre; sprayed onto soil, 800 g of active material per hectare; evaluated 3 weeks after treatment
Procedure, shortened: as §1

Stellaria media [13] = experiment: Herbicidal activity, preemergence test; conditions: pre; sprayed onto soil, 800 g of active material per hectare; evaluated 3 weeks after treatment
Procedure, shortened: as §1

Viola arvensis [14] = experiment: Herbicidal activity, preemergence test; conditions: pre; sprayed onto soil, 800 g of active material per hectare; evaluated 3 weeks after treatment
Procedure, shortened: as §1

Ipomoea hederacea [15] = experiment: Herbicidal activity, preemergence test; conditions: pre; sprayed onto soil, 800 g of active material per hectare; evaluated 3 weeks after treatment
Procedure, shortened: as §1

Alopecurus myosuroides [16] = experiment: Herbicidal activity, preemergence test; conditions: pre; sprayed onto soil, 800 g of active material per hectare; evaluated 3 weeks after treatment
Procedure, shortened: as §1

Lamium purpureum [17] = experiment: Herbicidal activity, preemergence test; conditions: pre; sprayed onto soil, 800 g of active material per hectare; evaluated 3 weeks after treatment
Procedure, shortened: as §1

Setaria viridis [18] = experiment: Herbicidal activity, preemergence test; conditions: pre; sprayed onto soil, 800 g of active material per hectare; evaluated 3 weeks after treatment
Procedure, shortened: as §1

Triticum aestivum [19] = experiment: Herbicidal activity, postemergence test; conditions: post; sprayed onto seedling plants, 800 g of active material per hectare; evaluated 2 weeks after treatment
Procedure, shortened: as §1

Abutilon theophrasti [20] = experiment: Herbicidal activity, postemergence test; conditions: post; sprayed onto seedling plants, 800 g of active material per hectare; evaluated 2 weeks after treatment
Procedure, shortened: as §1

Galium aparine [21] = experiment: Herbicidal activity, postemergence test; conditions: post; sprayed onto seedling plants, 800 g of active material per hectare; evaluated 2 weeks after treatment
Procedure, shortened: as §1

Amaranthus retroflexus [22] = experiment: Herbicidal activity, postemergence test; conditions: post; sprayed onto seedling plants, 800 g of active material per hectare; evaluated 2 weeks after treatment
Procedure, shortened: as §1

Gossypium hirsutum [23] = experiment: Herbicidal activity, postemergence test; conditions: post; sprayed onto seedling plants, 800 g of active material per hectare; evaluated 2 weeks after treatment
Procedure, shortened: as §1

Helianthus annuus [24] = experiment: Herbicidal activity, postemergence test; conditions: post; sprayed onto seedling plants, 800 g of active material per hectare; evaluated 2 weeks after treatment
Procedure, shortened: as §1

Hordeum vulgare [25] = experiment: Herbicidal activity, postemergence test; conditions: post; sprayed onto seedling plants, 800 g of active material per hectare; evaluated 2 weeks after treatment
Procedure, shortened: as §1

Echinochloa crus-galli [26] = experiment: Herbicidal activity, postemergence test; conditions: post; sprayed onto seedling plants, 800 g of active material per hectare; evaluated 2 weeks after treatment
Procedure, shortened: as §1

Glycine max [27] = experiment: Herbicidal activity, postemergence test; conditions: post; sprayed onto seedling plants, 800 g of active material per hectare; evaluated 2 weeks after treatment
Procedure, shortened: as §1

Ambrosia artemisifolia [28] = experiment: Herbicidal activity, postemergence test; conditions: post; sprayed onto seedling plants, 800 g of active material per hectare; evaluated 2 weeks after treatment
Procedure, shortened: as §1

Veronica persica [29] = experiment: Herbicidal activity, postemergence test; conditions: post; sprayed onto seedling plants, 800 g of active material per hectare; evaluated 2 weeks after treatment
Procedure, shortened: as §1

Zea mays [30] = experiment: Herbicidal activity, postemergence test; conditions: post; sprayed onto seedling plants, 800 g of active material per hectare; evaluated 2 weeks after treatment
Procedure, shortened: as §1

Stellaria media [31] = experiment: Herbicidal activity, postemergence test; conditions: post; sprayed onto seedling plants, 800 g of active material per hectare; evaluated 2 weeks after treatment
Procedure, shortened: as §1

Viola arvensis [32] = experiment: Herbicidal activity, postemergence test; conditions: post; sprayed onto seedling plants, 800 g of active material per hectare; evaluated 2 weeks after treatment
Procedure, shortened: as §1

Ipomoea hederacea [33] = experiment: Herbicidal activity, postemergence test; conditions: post; sprayed onto seedling plants, 800 g of active material per hectare; evaluated 2 weeks after treatment
Procedure, shortened: as §1

Alopecurus myosuroides [34] = experiment: Herbicidal activity, postemergence test; conditions: post; sprayed onto seedling plants, 800 g of active material per hectare; evaluated 2 weeks after treatment
Procedure, shortened: as §1

Lamium purpureum [35] = experiment: Herbicidal activity, postemergence test; conditions: post; sprayed onto seedling plants, 800 g of active material per hectare; evaluated 2 weeks after treatment
Procedure, shortened: as §1

Setaria viridis [36] = experiment: Herbicidal activity, postemergence test; conditions: post; sprayed onto seedling plants, 800 g of active material per hectare; evaluated 2 weeks after treatment
Procedure, shortened: as §1

Row | Compound | TRZAW control rating (0-9) (Triticum aestivum [1]) | ABUTH control rating (0-9) (Abutilon theophrasti [2]) | GALAP control rating (0-9) (Galium aparine [3]) | AMARE control rating (0-9) (Amaranthus retroflexus [4]) | GOSHI control rating (0-9) (Gossypium hirsutum [5]) | HELAN control rating (0-9) (Helianthus annuus [6]) | HORVW control rating (0-9) (Hordeum vulgare [7]) | ECHCG control rating (0-9) (Echinochloa crus-galli [8]) | GLXMA control rating (0-9) (Glycine max [9]) | AMBEL control rating (0-9) (Ambrosia artemisifolia [10]) | VERPE control rating (0-9) (Veronica persica [11]) | ZEAMX control rating (0-9) (Zea mays [12]) | STEME control rating (0-9) (Stellaria media [13]) | VIOAR control rating (0-9) (Viola arvensis [14]) | IPOHE control rating (0-9) (Ipomoea hederacea [15]) | ALOMY control rating (0-9) (Alopecurus myosuroides [16]) | LAMPU control rating (0-9) (Lamium purpureum [17]) | SETVI control rating (0-9) (Setaria viridis [18]) | TRZAW control rating (0-9) (Triticum aestivum [19]) | ABUTH control rating (0-9) (Abutilon theophrasti [20]) | other results
1 | CC(NC(=O)c1nnc(C(C)(C)C)o1)c1cccs1 (racemic) [Example 5] | 0 (no effect) | 7 (good herbicidal effect) | 0 (no effect) | 5 (definite injury) | 0 (no effect) | 0 (no effect) | 0 (no effect) | 6 (herbicidal effect) | 0 (no effect) | 1 (trace effect) | 8 (approaching complete kill) | 0 (no effect) | 8 (approaching complete kill) | 6 (herbicidal effect) | 0 (no effect) | 4 (injury) | 2 (slight effect) | 8 (approaching complete kill) | 4 (injury) | 8 (approaching complete kill) | GALAP control rating (0-9) (Galium aparine [21]): 5 (definite injury); AMARE control rating (0-9) (Amaranthus retroflexus [22]): 5 (definite injury); GOSHI control rating (0-9) (Gossypium hirsutum [23]): 9 (complete kill); HELAN control rating (0-9) (Helianthus annuus [24]): 8 (approaching complete kill); HORVW control rating (0-9) (Hordeum vulgare [25]): 4 (injury); ECHCG control rating (0-9) (Echinochloa crus-galli [26]): 4 (injury); GLXMA control rating (0-9) (Glycine max [27]): 8 (approaching complete kill); AMBEL control rating (0-9) (Ambrosia artemisifolia [28]): 9 (complete kill); VERPE control rating (0-9) (Veronica persica [29]): 9 (complete kill); ZEAMX control rating (0-9) (Zea mays [30]): 4 (injury); STEME control rating (0-9) (Stellaria media [31]): 8 (approaching complete kill); VIOAR control rating (0-9) (Viola arvensis [32]): 7 (good herbicidal effect); IPOHE control rating (0-9) (Ipomoea hederacea [33]): 6 (herbicidal effect); ALOMY control rating (0-9) (Alopecurus myosuroides [34]): 3 (moderate effect); LAMPU control rating (0-9) (Lamium purpureum [35]): 1 (trace effect); SETVI control rating (0-9) (Setaria viridis [36]): 6 (herbicidal effect)
2 | C[C@H](NC(=O)c1nnc(C(C)(C)C)o1)c1ccccc1 [Example 2, (S)-5-tert-Butyl-[1,3,4]oxadiazole-2-carboxylic acid (1-phenylethyl)amide] | 0 (no effect) | 4 (injury) | 0 (no effect) | 5 (definite injury) | 0 (no effect) | 0 (no effect) | 0 (no effect) | 0 (no effect) | 0 (no effect) | 3 (moderate effect) | 8 (approaching complete kill) | 0 (no effect) | 5 (definite injury) | 5 (definite injury) | 0 (no effect) | 2 (slight effect) | 0 (no effect) | 5 (definite injury) | 3 (moderate effect) | 6 (herbicidal effect) | GALAP control rating (0-9) (Galium aparine [21]): 4 (injury); AMARE control rating (0-9) (Amaranthus retroflexus [22]): 6 (herbicidal effect); GOSHI control rating (0-9) (Gossypium hirsutum [23]): 4 (injury); HELAN control rating (0-9) (Helianthus annuus [24]): 4 (injury); HORVW control rating (0-9) (Hordeum vulgare [25]): 1 (trace effect); ECHCG control rating (0-9) (Echinochloa crus-galli [26]): 3 (moderate effect); GLXMA control rating (0-9) (Glycine max [27]): 3 (moderate effect); AMBEL control rating (0-9) (Ambrosia artemisifolia [28]): 5 (definite injury); VERPE control rating (0-9) (Veronica persica [29]): 7 (good herbicidal effect); ZEAMX control rating (0-9) (Zea mays [30]): 1 (trace effect); STEME control rating (0-9) (Stellaria media [31]): 6 (herbicidal effect); VIOAR control rating (0-9) (Viola arvensis [32]): 5 (definite injury); IPOHE control rating (0-9) (Ipomoea hederacea [33]): 5 (definite injury); ALOMY control rating (0-9) (Alopecurus myosuroides [34]): 0 (no effect); LAMPU control rating (0-9) (Lamium purpureum [35]): 2 (slight effect); SETVI control rating (0-9) (Setaria viridis [36]): 4 (injury)
3 | C[C@H](NC(=O)c1nnc(-c2ccccc2)o1)c1ccccc1 [Example 4] | 0 (no effect) | 1 (trace effect) | 0 (no effect) | 8 (approaching complete kill) | 0 (no effect) | 0 (no effect) | 0 (no effect) | 4 (injury) | 0 (no effect) | 0 (no effect) | 6 (herbicidal effect) | 1 (trace effect) | 6 (herbicidal effect) | 6 (herbicidal effect) | 0 (no effect) | 0 (no effect) | 3 (moderate effect) | 4 (injury) | 4 (injury) | 9 (complete kill) | GALAP control rating (0-9) (Galium aparine [21]): 8 (approaching complete kill); AMARE control rating (0-9) (Amaranthus retroflexus [22]): 9 (complete kill); GOSHI control rating (0-9) (Gossypium hirsutum [23]): 9 (complete kill); HELAN control rating (0-9) (Helianthus annuus [24]): 9 (complete kill); HORVW control rating (0-9) (Hordeum vulgare [25]): 5 (definite injury); ECHCG control rating (0-9) (Echinochloa crus-galli [26]): 5 (definite injury); GLXMA control rating (0-9) (Glycine max [27]): 8 (approaching complete kill); AMBEL control rating (0-9) (Ambrosia artemisifolia [28]): 9 (complete kill); VERPE control rating (0-9) (Veronica persica [29]): 9 (complete kill); ZEAMX control rating (0-9) (Zea mays [30]): 3 (moderate effect); STEME control rating (0-9) (Stellaria media [31]): 9 (complete kill); VIOAR control rating (0-9) (Viola arvensis [32]): 7 (good herbicidal effect); IPOHE control rating (0-9) (Ipomoea hederacea [33]): 9 (complete kill); ALOMY control rating (0-9) (Alopecurus myosuroides [34]): 4 (injury); LAMPU control rating (0-9) (Lamium purpureum [35]): 6 (herbicidal effect); SETVI control rating (0-9) (Setaria viridis [36]): 8 (approaching complete kill)
